Source: article PMC9468336, “The choanoflagellate pore-forming lectin SaroL-1 punches holes in cancer cells by targeting the tumor-related glycosphingolipid Gb3” (Communications Biology, 2022)
Where two headings read alike, the source gives them in different places.

How the values were obtained:
[1] = target: T1, hemolytic activity of SaroL-1 on rabbit erythrocytes (Salpingoeca rosetta, UniProt F2UID9); experiment: Inhibition of hemolytic activity (IHA) of SaroL-1 by carbohydrates; assay type: cell-based; settings: for inhibition: SaroL-1 217 nM, read-out: Mean % inhibition of hemolysis
T1 sequence (F2UID9 1-329): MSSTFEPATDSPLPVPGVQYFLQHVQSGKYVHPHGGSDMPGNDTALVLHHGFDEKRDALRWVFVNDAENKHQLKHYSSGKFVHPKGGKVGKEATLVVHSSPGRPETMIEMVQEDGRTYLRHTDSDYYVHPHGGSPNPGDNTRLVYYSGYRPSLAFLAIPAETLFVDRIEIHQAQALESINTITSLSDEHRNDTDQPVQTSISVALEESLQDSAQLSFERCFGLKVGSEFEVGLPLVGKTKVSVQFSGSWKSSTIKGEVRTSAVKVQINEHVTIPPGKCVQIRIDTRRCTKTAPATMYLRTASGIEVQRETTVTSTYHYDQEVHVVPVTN
Description: (§1) Both HA and IHA assays were performed in U-shaped 96-well microtiter plates. In both cases, a control negative experiment was performed with Buffer A added to erythrocyte solution (2% final concentration), and the resulting value was subtracted from all data.
IHA was performed in U-shaped 96-well microtiter plates. […] 4% rabbit erythrocytes were added to the mixture in a 1:1 ratio and incubated for 1–2 h at 37 °C. The samples were centrifuged, 2600 × g for 15 min at RT, and the absorbance of the supernatant was measured at 540 nm by a Tecan reader.

[2] = target: T2, SaroL-1 (Salpingoeca rosetta, UniProt F2UID9); experiment: Isothermal titration calorimetry (MicroCal iTC200) at 25 °C in 20 mM Tris/HCl pH 7.5, 100 mM NaCl, ligand titrated into SaroL-1, one-site model with stoichiometry N fixed to 3.; assay type: binding
T2 construct: gene PTSG_08235; monomeric in solution
Description: Isothermal Titration Calorimetry (ITC)
ITC experiments were performed with MicroCaliTC200 (Malvern Panalytical). Experiments were carried out at 25 °C ± 0.1 °C. SaroL-1 and ligands samples were prepared in Buffer A. The ITC cell contained SaroL-1 in a concentration range from 0.05 mM to 0.16 mM. The syringe contained the ligand solutions in a concentration from 10 to 50 mM. 2 μL of ligands solutions were injected into the sample cell at intervals of 120 s while stirring at 750 rpm. Integrated heat effects were analysed by nonlinear regression using one site binding model (MicroCal PEAQ-ITC Analysis software). The experimental data were fitted to a theoretical curve, which gave the dissociation constant (Kd) and the enthalpy of binding (∆H).

[3] = system: rabbit erythrocytes; experiment: Hemolytic assay (HA); assay type: cell-based
Description: as §1
SaroL-1 with an initial concentration of 27 μM was diluted by serial 2-fold dilution in Buffer A. Rabbit erythrocytes were purchased from Atlantis France and used without further washing. The erythrocytes were diluted to a 4% solution in 150 mM NaCl. Protein solution and rabbit erythrocytes were mixed together in a 1:1 ratio and incubated for 1 h at 37 °C. After the samples were centrifuged, 2600 × g for 15 min at RT and the absorbance of the supernatant was measured at 540 nm by a Tecan reader.

[4] = Confocal imaging of SaroL-1 binding to lactosylceramide GUVs; settings: 200 nM labelled SaroL-1, Lac-cer GUVs
From the text: GUVs were composed of 1,2-dioleoyl-sn-glycero-3-phosphocholine (DOPC), cholesterol (both AvantiPolar Lipids, United States), Atto 647 N 1,2-dioleoyl-sn-glycero-3-phosphoethanolamine (DOPE; Sigma-Aldrich), and one of the following glycolipids at a molar ratio of 64.7:30:0.3:5. The glycolipids are globotriaosylceramide (Gb3, Matreya), FSL-Gb3 (Function-Spacer-Lipid with globotriaosyl saccharide), and corresponding FSL-isoGb3 (Function-Spacer-Lipid with iso-globotriaosyl saccharide) synthetized as previously described[84],[85], FSL-A(tri) (Function-Spacer-Lipid with blood group A trisaccharide; Sigma-Aldrich), FSL-B(tri) (Function-Spacer-Lipid with blood group B trisaccharide; Sigma-Aldrich) or lactosylceramide (LC, Sigma-Aldrich).
GUVs were prepared by the electroformation method as earlier described. Briefly, lipids dissolved in chloroform of a total concentration of 0.5 mg/mL were spread on indium tin oxid-covered (ITO) glass slides and dried in a vacuum for at least 1 h or overnight. […]
Samples of GUVs and SaroL-1 were imaged using a confocal fluorescence microscope (Nikon Eclipse Ti-E inverted microscope equipped with Nikon A1R confocal laser scanning system, 60x oil immersion objective, NA = 1.49 and four laser lines: 405 nm, 488 nm, 561 nm, and 640 nm). […]

[5] = system: H1299 cells; experiment: Cell detachment assay; assay type: cell-based, human
Description: The human lung epithelial cell line H1299 (American Type Culture Collection, CRL-5803) was cultured in a complete medium, consisting of Roswell Park Memorial Institute (RPMI) medium supplemented with 10% fetal calf serum (FCS) and 2 mM L-glutamine at 37 °C and 5% CO2. Cells were stimulated with different concentrations of SaroL-1 in a complete medium for indicated time points.
To determine the role of SaroL-1 in cell detachment, 3 × 10^5 cells per well were counted and allowed to adhere overnight in a 6-well plate. The next day, cells were incubated for 2, 4, or 8 h with two different concentrations of SaroL-1 (270 nM and 1.36 µM) diluted in a complete medium compared to a negative control. As a positive control, cells were incubated with trypsin-EDTA for 10 min at 37 °C, to induce 100% cell detachment. The number of cells in suspension at the indicated time points was quantified by analyzing the supernatant with the CytoSmart Corning cell counter. Cells were resuspended with Trypan Blue solution (Sigma-Aldrich) in a ratio 1:1 for the quantification of cellular death upon detachment.

## O=[N+]([O-])c1ccc(O[C@H]2O[C@H](CO)[C@H](O)[C@H](O)[C@H]2O)cc1 [PNPG, p-nitrophenyl-α-D-galactopyranoside]
[1]; 10 mM carbohydrate
  inhibition of hemolysis (in words): complete inhibition
[1]; sugar 0.003 mM
  inhibition: 8.15%
[1]; sugar 0.006 mM
  inhibition: 10.7%
[1]; sugar 0.0125 mM
  inhibition: 12.1%
[1]; sugar 0.025 mM
  inhibition: 9.06%
[1]; sugar 0.05 mM
  inhibition: 3.85%
[1]; sugar 0.1 mM
  inhibition: 3.39%
[1]; sugar 0.2 mM
  inhibition: 1.44%
[1]; sugar 0.4 mM
  inhibition: 2.69%
[1]; sugar 0.8 mM
  inhibition: 8.59%
[1]; sugar 1.6 mM
  inhibition: 24.5%
[1]; sugar 3.125 mM
  inhibition: 55.9%
[1]; sugar 6.25 mM
  inhibition: 90.5%
[1]; sugar 12.5 mM
  inhibition: 100%
[1]; sugar 25 mM
  inhibition: 100%
[1]; sugar 50 mM
  inhibition: 100%
[2]
  Kd: 1010 µM

B1: SaroL-1: Recombinant pore-forming lectin of Salpingoeca rosetta (UniProt F2UID9, 329 amino acids) with β-trefoil and aerolysin-like domains (protein)
chain: T1 sequence (F2UID9 1-329)
modifications: left off: His6, N-terminal, state not stated
notes: Recombinant pore-forming lectin of Salpingoeca rosetta (UniProt F2UID9, 329 amino acids) with β-trefoil and aerolysin-like domains
[3]; SaroL-1 7 nM
  Hemolysis MEAN %: -2.217%
[3]; SaroL-1 14 nM
  Hemolysis MEAN %: -0.8961%
[3]; SaroL-1 27 nM
  Hemolysis MEAN %: -0.5487%
[3]; SaroL-1 55 nM
  Hemolysis MEAN %: 5.667%
[3]; SaroL-1 110 nM
  Hemolysis MEAN %: 24.3716%
[3]; SaroL-1 217 nM
  Hemolysis MEAN %: 59.5625%
[3]; SaroL-1 423 nM
  Hemolysis MEAN %: 85.1119%
[3]; SaroL-1 843 nM
  Hemolysis MEAN %: 95.7679%
[3]; SaroL-1 1680 nM
  Hemolysis MEAN %: 93.9729%
[3]; SaroL-1 3400 nM
  Hemolysis MEAN %: 95.1481%
[3]; SaroL-1 6790 nM
  Hemolysis MEAN %: 95.7781%
[3]; SaroL-1 13590 nM
  Hemolysis MEAN %: 100%
[4]
  binding to GUVs: very weak binding
[5]; 271 nM SaroL-1
  time point at which cell detachment is promoted: 8 h
[5]; compared to PBS-treated cells
  cell rounding and detachment (in words): dose-dependent rounding and detachment of cells
[5]; highest concentration, 1.36 µM SaroL-1
  time point at which detachment of cells is visible: 2 h
